ChEMBL document CHEMBL1201862, “PubChem BioAssay data set” (2004)
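Method: 48-hour compound exposure of cells in 96-well plates, five concentrations, linear interpolation of endpoints. GI50 is the concentration that inhibits growth by half.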 The source made the active and inactive calls. Cut-off read from the data, not from the text of the source: active = GI50 up to about 1.1 µM and inactive = higher.

Columns and labels:
Assay in all cases: NCI anticancer screen, dose series, 48 h
SK-OV-3 = tested on: SK-OV-3
KM12 = tested on: KM12
ACHN = tested on: ACHN
OVCAR-5 = tested on: OVCAR-5
TK-10 = tested on: TK-10
BT-549 = tested on: BT-549
PC-3 = tested on: PC-3
HOP-92 = tested on: HOP-92
MDA-N = tested on: MDA-N
SNB-75 = tested on: SNB-75
SK-MEL-28 = tested on: SK-MEL-28
CAKI-1 = tested on: CAKI-1
UACC-62 = tested on: UACC-62
Malme-3M = tested on: Malme-3M
SR = tested on: SR
MCF7 = tested on: MCF7
M14 = tested on: M14
U-251 = tested on: U-251
UO-31 = tested on: UO-31
HCC 2998 = tested on: HCC 2998

SMILES	GI50 (SK-OV-3)	GI50 (KM12)	GI50 (ACHN)	GI50 (OVCAR-5)	GI50 (TK-10)	GI50 (BT-549)	GI50 (PC-3)	GI50 (HOP-92)	GI50 (MDA-N)	GI50 (SNB-75)	GI50 (SK-MEL-28)	GI50 (CAKI-1)	GI50 (UACC-62)	GI50 (Malme-3M)	GI50 (SR)	GI50 (MCF7)	GI50 (M14)	GI50 (U-251)	GI50 (UO-31)	GI50 (HCC 2998)
CC(NC(=O)c1ccc(Cl)c(Cl)c1)c1ccc(-c2ccccc2)cc1 (stereo not given)	27.5 µM (inactive)	57.7 µM (inactive)	50.1 µM (inactive)	44.9 µM (inactive)	29 µM (inactive)	66.5 µM (inactive)	28.2 µM (inactive)	25.5 µM (inactive)	> 100 µM (inactive)	15.8 µM (inactive)	58.6 µM (inactive)	29.9 µM (inactive)	31.6 µM (inactive)	21.5 µM (inactive)	15.2 µM (inactive)	78 µM (inactive)	64.7 µM (inactive)	31.7 µM (inactive)	14.2 µM (inactive)	43.1 µM (inactive)
COc1ccc2nc3cc([N+](=O)[O-])ccc3c(NNc3ccc([N+](=O)[O-])cc3)c2c1	98.4 µM (inactive)	24.5 µM (inactive)	46.9 µM (inactive)	3.91 µM (inactive)	2.46 µM (inactive)	43.1 µM (inactive)	22.4 µM (inactive)	26.7 µM (inactive)	30.5 µM (inactive)	67.9 µM (inactive)	68.2 µM (inactive)	0.818 µM (active)	3.37 µM (inactive)	30.1 µM (inactive)	32.5 µM (inactive)	4.01 µM (inactive)	43.4 µM (inactive)	20.8 µM (inactive)	24.7 µM (inactive)	11.1 µM (inactive)
NS(=O)(=O)c1ccc(NC(=O)N/N=C/c2ccccc2O)cc1	81.5 µM (inactive)	33.7 µM (inactive)	> 100 µM (inactive)	> 100 µM (inactive)	> 100 µM (inactive)	43.8 µM (inactive)	> 100 µM (inactive)	94.4 µM (inactive)	22.1 µM (inactive)	56.9 µM (inactive)	85.1 µM (inactive)	94.4 µM (inactive)	60.4 µM (inactive)	74.3 µM (inactive)	22.2 µM (inactive)	58.2 µM (inactive)	36.8 µM (inactive)	50.1 µM (inactive)	60.7 µM (inactive)	40.7 µM (inactive)
O=C(CSc1ncccn1)N/N=C/c1ccccc1OCc1ccccc1	37.6 µM (inactive)	28.4 µM (inactive)	35.2 µM (inactive)	> 100 µM (inactive)	23.4 µM (inactive)	25 µM (inactive)	28.8 µM (inactive)	16.9 µM (inactive)	10.8 µM (inactive)	21.5 µM (inactive)	36.6 µM (inactive)	26.4 µM (inactive)	20.9 µM (inactive)	32.4 µM (inactive)	4.23 µM (inactive)	17.6 µM (inactive)	29.2 µM (inactive)	26.8 µM (inactive)	44.5 µM (inactive)	27.8 µM (inactive)
COc1ccc(C2=C(N)c3c(OC)cccc3C2=O)cc1	> 100 µM (inactive)	> 100 µM (inactive)	> 10 µM (inactive)	> 100 µM (inactive)	> 10 µM (inactive)	48.6 µM (inactive)	> 100 µM (inactive)	> 10 µM (inactive)	> 100 µM (inactive)	> 100 µM (inactive)	> 100 µM (inactive)	> 100 µM (inactive)	> 100 µM (inactive)	> 100 µM (inactive)	> 100 µM (inactive)	60.5 µM (inactive)	97.5 µM (inactive)	64.9 µM (inactive)	> 100 µM (inactive)	> 100 µM (inactive)
CC(=O)N1N=C(c2c(O)ccc3ccccc23)CC1C(=O)c1ccco1 (stereo not given)	48.6 µM (inactive)	28.1 µM (inactive)	33 µM (inactive)	55 µM (inactive)	60.3 µM (inactive)	18.4 µM (inactive)	23 µM (inactive)	52.7 µM (inactive)	23.9 µM (inactive)	17.9 µM (inactive)	30.9 µM (inactive)	42.6 µM (inactive)	16.4 µM (inactive)	30.5 µM (inactive)	13.6 µM (inactive)	14.5 µM (inactive)	22.4 µM (inactive)	34.3 µM (inactive)	21.6 µM (inactive)	50.1 µM (inactive)
CCCNC(=O)CCC(C)[C@H]1CCC2C3C(C[C@H](OC(C)=O)[C@@]21C)[C@@]1(C)CCC2(C[C@H]1C[C@H]3OC(C)=O)OOC1(CCC(C)CC1)OO2 (stereo not given in full)	60.5 µM (inactive)	5.52 µM (inactive)	2.14 µM (inactive)	29.2 µM (inactive)	28.7 µM (inactive)	27.1 µM (inactive)	19.8 µM (inactive)	0.0447 µM (active)	14.3 µM (inactive)	23 µM (inactive)	89.7 µM (inactive)	2.28 µM (inactive)	43.5 µM (inactive)	18.6 µM (inactive)	9.79 µM (inactive)	34.7 µM (inactive)	26.4 µM (inactive)	14.8 µM (inactive)	0.959 µM (active)	40.1 µM (inactive)
O=C1C(c2cnc3ccccc3n2)=C(O)c2ccccc21	> 46.5 µM (inactive)	7.08 µM (inactive)	> 86.5 µM (inactive)	> 70.1 µM (inactive)	18.3 µM (inactive)	> 100 µM (inactive)	> 46.6 µM (inactive)	> 100 µM (inactive)	> 61.4 µM (inactive)	22 µM (inactive)	> 82.4 µM (inactive)	> 24.5 µM (inactive)	> 100 µM (inactive)	> 100 µM (inactive)	> 59.7 µM (inactive)	10.3 µM (inactive)	> 100 µM (inactive)	58.6 µM (inactive)	> 100 µM (inactive)	71.8 µM (inactive)
c1ccc(C2SCc3nc4cc5ccccc5cc4n32)cc1 (stereo not given)	> 100 µM (inactive)	> 100 µM (inactive)	> 100 µM (inactive)	> 100 µM (inactive)	> 100 µM (inactive)	> 100 µM (inactive)	> 100 µM (inactive)	57.3 µM (inactive)	> 100 µM (inactive)	70.1 µM (inactive)	> 100 µM (inactive)	> 100 µM (inactive)	> 100 µM (inactive)	> 100 µM (inactive)	> 100 µM (inactive)	> 100 µM (inactive)	> 100 µM (inactive)	> 100 µM (inactive)	> 100 µM (inactive)	> 100 µM (inactive)
CCO/C=N/C1=C(C#N)SC2=N/C(=C\c3ccccc3)C(=O)N21	> 100 µM (inactive)	> 100 µM (inactive)	> 100 µM (inactive)	> 100 µM (inactive)	> 89.1 µM (inactive)	> 100 µM (inactive)	> 100 µM (inactive)	> 100 µM (inactive)	> 100 µM (inactive)	> 81.3 µM (inactive)	> 100 µM (inactive)	> 100 µM (inactive)	> 100 µM (inactive)	> 100 µM (inactive)	39.4 µM (inactive)	> 100 µM (inactive)	> 100 µM (inactive)	> 100 µM (inactive)	> 100 µM (inactive)	> 100 µM (inactive)
COc1ccc(C(=O)/C=C/c2ccc(OCC#N)cc2)cc1	43.3 µM (inactive)	17.5 µM (inactive)	36.1 µM (inactive)	> 100 µM (inactive)	38.3 µM (inactive)	17.5 µM (inactive)	36.6 µM (inactive)	29 µM (inactive)	> 10 µM (inactive)	77.1 µM (inactive)	17.1 µM (inactive)	19.5 µM (inactive)	> 10 µM (inactive)	20.5 µM (inactive)	22.7 µM (inactive)	15.8 µM (inactive)	20 µM (inactive)	17.4 µM (inactive)	16.6 µM (inactive)	17.3 µM (inactive)
CCC(C)C(C(=O)N/N=C1/SCC(=O)N1c1ccccc1)C(=O)N/N=C1/SCC(=O)N1c1ccccc1 (stereo not given)	22.2 µM (inactive)	27.5 µM (inactive)	> 100 µM (inactive)	> 100 µM (inactive)	> 100 µM (inactive)	> 100 µM (inactive)	> 100 µM (inactive)	19 µM (inactive)	27.2 µM (inactive)	44.9 µM (inactive)	16.9 µM (inactive)	> 100 µM (inactive)	20 µM (inactive)	21.2 µM (inactive)	40.6 µM (inactive)	34.1 µM (inactive)	47.1 µM (inactive)	36.8 µM (inactive)	> 100 µM (inactive)	> 100 µM (inactive)
O=c1c2ccc(Cl)cc2oc2c(CNc3ccc(S(=O)(=O)Nc4ncccn4)cc3)cccc12	> 100 µM (inactive)	> 100 µM (inactive)	> 100 µM (inactive)	> 100 µM (inactive)	> 100 µM (inactive)	> 100 µM (inactive)	> 100 µM (inactive)	> 100 µM (inactive)	> 100 µM (inactive)	> 100 µM (inactive)	> 100 µM (inactive)	> 100 µM (inactive)	> 100 µM (inactive)	> 100 µM (inactive)	> 100 µM (inactive)	> 100 µM (inactive)	> 100 µM (inactive)	> 100 µM (inactive)	> 100 µM (inactive)	> 100 µM (inactive)
Cc1ccnc2nc(-c3cccc4ccccc34)cc(O)c12	0.00471 µM (active)	0.0183 µM (active)	0.0248 µM (active)	0.0516 µM (active)	0.454 µM (active)	14.1 µM (inactive)	0.0113 µM (active)	0.00123 µM (active)	0.000104 µM (active)	0.00255 µM (active)	0.00395 µM (active)	0.0121 µM (active)	0.00196 µM (active)	0.000708 µM (active)	0.0007 µM (active)	0.0304 µM (active)	0.00938 µM (active)	0.00445 µM (active)	0.0188 µM (active)	0.0573 µM (active)
